Test results: BindingDB's records for patent US11149040 (Amgen, 2021)

Biological target: T1, Apelin receptor (Homo sapiens, UniProt P35414)
T1 sequence (P35414 whole entry): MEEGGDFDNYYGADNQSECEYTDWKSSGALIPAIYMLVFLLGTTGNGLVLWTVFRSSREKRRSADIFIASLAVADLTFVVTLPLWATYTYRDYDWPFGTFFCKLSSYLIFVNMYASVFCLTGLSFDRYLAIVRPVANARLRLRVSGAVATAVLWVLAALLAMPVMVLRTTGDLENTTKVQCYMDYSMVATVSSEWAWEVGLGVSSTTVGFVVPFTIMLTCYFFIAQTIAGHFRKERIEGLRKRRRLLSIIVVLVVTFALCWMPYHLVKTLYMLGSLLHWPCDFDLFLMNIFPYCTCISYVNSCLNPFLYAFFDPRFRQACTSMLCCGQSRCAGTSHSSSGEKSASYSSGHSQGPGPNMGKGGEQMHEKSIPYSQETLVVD
Assay: [35S]GTPgammaS Binding
Protocol: The human APJ receptor was cloned by polymerase chain reaction and the gene encoding the receptor was subcloned in pFLAG-CMV -3 expression vector (Sigma, Saint Louis, Mo. USA) in-house at Amgen. A GTPγS binding assay was performed on membranes prepared from CHO cells stably expressing human APJ receptor. The optimum experimental conditions for the concentrations of GDP, MgCl2, and NaCl in the assay buffer were initially determined. The assay was performed in 9 μL assay buffer [20 mM HEPES, pH 7.5, 5 mM MgCl2, 100 mM NaCl and 0.1% (w/v) BSA], 1 μL of diluted test compound (starting with 0.75 mM, 2-fold serial dilution with DMSO, total 22 points), 10 μL of 18 μM GDP (final concentration of 3 μM GDP), 20 μL of […] membrane protein expressing human APJ receptor captured with WGA PS beads (final concentration of 5 μg per well), and 20 μL of 0.3 nM [35S]GTPγS (final concentration is 0.1 nM [35S]GTPγS)(Perkin Elmer Life and Analytical Sciences, Waltham USA). […] Incubation was at RT for 90 min and the microplate was read using a ViewLux ultra HTS Microplate Imager (PerkinElmer, Inc.). All the results presented are means of several independent experiments and analyzed by non-linear regression methods using the commercially available program Prism (GraphPad, San Diego, Calif.) providing the EC50 values detailed in Table 13.

Which EC50 does the source give for Cc1cnc([C@H](OC(C)C)[C@H](C)S(=O)(=O)Nc2nnc3n2-c2c(F)cccc2/C=C\CC3)nc1 (single isomer, unassigned) [US11149040, Example 49.0] here?
The EC50 was 98 nM.
